Results taken from PMC6478789, “A chemical toolbox for the study of bromodomains and epigenetic signaling” (Nature Communications, 2019).

How the values were obtained:
MDA-MB-436 cells [1] = assay: Acetyl-CoA measurement assay; format: cell-based, human; conditions: BAY-876, 5 days
Protocol: (§1) Cells were seeded in six-well plates followed by overnight incubation. The next day, cells were treated with DMSO or the indicated concentration of BAY-876. After 5 days, cells were lysed, and intracellular metabolites were measured using commercial kits detecting acetyl-CoA (PicoProbe, Abcam ab87546) and NAD^+/NADH ratio (Abcam 65348).

MDA-MB-436 cells [2] = assay: NAD+/NADH ratio measurement assay; format: cell-based, human; conditions: BAY-876, 5 days
Protocol: as §1

MDA-MB-436 cells [3] = assay: Immunoblot of H3 and H4 acetylation; format: cell-based, human; conditions: BAY-876 treatment
Protocol: Total cell lysates were resolved in 4−12% Bis-Tris protein gels (Invitrogen) with MOPS (3-(N-morpholino)propanesulfonic acid) buffer (Invitrogen) and transferred for 1.5 h (80 V) onto polyvinylidene fluoride membrane (Millipore) in Tris-glycine transfer buffer containing 20% MeOH and 0.05% sodium dodecyl sulfate. Blots were blocked for 1 h in blocking buffer (5% milk in 0.1% Tween-20 PBS) and incubated with primary antibodies: anti-ac-H3 (1:2000, ab47915); anti-ac-H4 (1:2000; ab177790); anti-H3 (1:2000; ab1791); anti-H4 (1:2000; ab10158); anti-H3K14ac (1:4000; ab52946); anit-BRPF1 (1:1000; Thermo Fisher); anti-BRPF2 (1:2000; ab71877) in blocking buffer overnight at 4 °C. After five washes with 0.1% Tween-20 PBS the blots were incubated with goat-anti-rabbit (IR800 conjugated, LiCor no. 926-32211) and donkey anti-mouse (IR 680, LiCor no. 926-68072) antibodies (1:5000) in Odyssey blocking buffer (LiCor) for 1 h at room temperature and washed five times with 0.1% Tween-20 PBS. The signal was read on an Odyssey scanner (LiCor) at 800 and 700 nm.

GCN5L2 = biological target: T1, GCN5L2 (Homo sapiens, UniProt Q92830); design: purchased; method as in ref 2 (suppl.), 26 (main text); conditions: BROMOscan; ref 2 (suppl.), 26; read-out: KD (nM), GCN5; cited from earlier work
T1 sequence (Q92830 728-832 limits assumed): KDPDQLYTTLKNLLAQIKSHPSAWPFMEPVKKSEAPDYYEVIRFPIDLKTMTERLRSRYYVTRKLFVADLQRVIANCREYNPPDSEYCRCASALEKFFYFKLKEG

PCAF = biological target: T2, PCAF (Homo sapiens, UniProt Q92831); design: purchased; method as in ref 2 (suppl.), 26 (main text); conditions: BROMOscan; ref 2 (suppl.), 26; cited from earlier work
T2 sequence (Q92831 723-827 limits assumed): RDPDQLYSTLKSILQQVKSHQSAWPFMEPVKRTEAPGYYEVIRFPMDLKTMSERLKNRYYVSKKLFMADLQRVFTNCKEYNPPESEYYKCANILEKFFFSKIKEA

MDA-MB-436 cells [4] = assay: Immunoblot of H3K14 acetylation; format: cell-based, human; conditions: 3 μM, 5 days; compared to NI-57 and PFI-4
Source text: Graph indicates mean, error bars denote s.d. from eight wells (from two independent assays) and p-value was computed using the Benjamini-Hochberg t test; ***p < 0.001. d Immunoblot validation of BRPF knockdown in MDA-MB-436 cells. e Quantitative real-time PCR (RT-qPCR) validation of BRPF knockdown in MDA-MB-436 cells. […] Raw data images are available in Supplementary Fig. 4 […]
Total cell lysates were resolved in 4−12% Bis-Tris protein gels (Invitrogen) with MOPS (3-(N-morpholino)propanesulfonic acid) buffer (Invitrogen) and transferred for 1.5 h (80 V) onto polyvinylidene fluoride membrane (Millipore) in Tris-glycine transfer buffer containing 20% MeOH and 0.05% sodium dodecyl sulfate. […] The signal was read on an Odyssey scanner (LiCor) at 800 and 700 nm.
Wu et al., Supplementary figures and tables 5 indicate mean and error bars denote standard deviation from eight wells (from two independent assays). b) A representative immunoblot of histone acetylation level across ten TNBC lines. c) Plot of ECAR and histone acetylation across ten TNBC lines. […] Cell apoptotic activity was quantified by the fluorescent caspase 3/7 active objects. […]

In the case of Cc1c(NC(=O)c2cc(C(N)=O)nc3cc(F)ccc23)c(C(F)(F)F)nn1Cc1ccc(C#N)cc1 [BAY-876], the “absolute acetyl-CoA level” value (MDA-MB-436 cells [1]) is reported as “decrease”, the “NAD+/NADH ratio” value (MDA-MB-436 cells [2]) is reported as “increase” and the “global levels of acetylated histone H3 (ac-H3)” value (MDA-MB-436 cells [3]) is reported as “reduction”.
In the case of CN1C[C@H](Nc2cnn(C)c(=O)c2Br)C[C@H](c2ccccc2)C1 [GSK4027], the Kd (GCN5L2) is given as 1.4 nM and the Kd (PCAF) is given as 1.4 nM.
With COc1cc2c(cc1NS(=O)(=O)c1ccc(Br)cc1C)n(C)c(=O)n2C [OF-1] the “acetylation of H3K14” value (MDA-MB-436 cells [4]) was “significantly decreased”.
